From patent publication US20220193060A1, “Inhibition of IL-1 Induced Inflammation” (THIOLAB, LLC., priority 2019, published 2022)

Test system: IL-1β
Test: IL-1β ELISA, PMA-treated THP-1 cells stimulated with IFNγ and LPS
Type: cell-based, human
Conditions: for Ave IL-Ib 1/10 Avg / Ave IL-Ib 1/10 Rep 1 / Ave IL-Ib 1/10 Rep 2 / Ave IL-Ib 2/28 Rep 1 / Ave IL-Ib 2/28 Rep 2 / Ave IL-Ib 2/28 Rep 3 / IL-1β Relative %: THP-1
Procedure: Methodology: The study included replicated tests of IL-1β levels with and without CPDS, as well as reference testing of untreated cells and cells treated with lactoferrin and clobetasol. A third test was conducted of IL-1 receptor […] (IL-1RA) receptor, to assist in distinguishing whether reductions in IL-1β levels were associated with secretion or receptor blocking (via the receptor antagonist). Cell viability studies were conducted for both sets of tests. Each of the tests used an ELISA model with the following protocols. 1. THP-1 cells were grown in (RPMI+10% FBS, 10 mM HEPES, 1 mM Sodium Pyruvate, and 0.05 mM 2-Mecaptpethanol) to P8. 2. Cells were plated at 30,000 cells per well in 120 ul with Media+20 ng/ml PMA+2× Genta. 3. […] Cells were treated according to plan below. 5. Cells were incubated for three more days at 37° C. and 5% CO2. 6. Cell supernatant were collected and ELISA was measured for IL-1RA, IL-1α, and IL-1β. 7. Plate was read at 490 nm until O.D reached 1.5. Day 1—1. THP-1+20 ng/ml PMA 30,000 cells per well 120 uL Day 3—1. Add Compound at 4× in 60 uL. Incubate for 2 hours. CPDS—800 uM (200 uM Final), lactoferrin—800 ug/mL (200 ug/ml Final) clobetasol −40 ng/mL (10 ng/mL Final). 2. […] Add 30 uL LPS at 8×—20 ng/ml (2.5 ng/ml final) in 30 uL (Wells 2-10) 4. Incubate for 3 days. Day 6—1. Collect 80 ul of sample 2 times and freeze for ELISA. 2. Develop with 15 uL of Substrate and read at 490 nm until plate reaches 1.5 OD. THP-1 is a spontaneously immortalized monocyte-like cell line, derived from the peripheral blood of a childhood case of acute monocytic leukemia, which has been extensively used to study monocyte/macrophage functions, mechanisms, signaling pathways, and nutrient and drug transport. This cell line has become a common model to estimate modulation of monocyte and macrophage activities.

[1] = CPDS 1.6 uM + 10 ng/ml IFNy + 2.5 ng/ml LPS
[2] = CPDS 3.1 uM + 10 ng/ml IFNy + 2.5 ng/ml LPS
[3] = CPDS 6.3 uM + 10 ng/ml IFNy + 2.5 ng/ml LPS
[4] = CPDS 12.5 uM + 10 ng/ml IFNy + 2.5 ng/ml LPS
[5] = CPDS 25.0 uM + 10 ng/ml IFNy + 2.5 ng/ml LPS
[6] = CPDS 50.0 uM + 10 ng/ml IFNy + 2.5 ng/ml LPS
[7] = CPDS 100.0 uM + 10 ng/ml IFNy + 2.5 ng/ml LPS
[8] = CPDS 200.0 uM + 10 ng/ml IFNy + 2.5 ng/ml LPS

`O=C(O)c1ccc(SSc2ccc(C(=O)O)cn2)nc1` [CPDS, 6,6′-dithiodinicotinic acid] was tested, and the “neutralization of production of IL-1β in human cells” value (25 μM) was “near neutralization”, the “Ave IL-Ib 1/10 Avg” value [1] was 0.19 ng/mL and the “Ave IL-Ib 1/10 Rep 1” value [1] was 0.19 ng/mL. For the same compound, the “Ave IL-Ib 1/10 Rep 2” value [1] was 0.18 ng/mL, the “Ave IL-Ib 2/28 Rep 1” value [1] was 0.32 ng/mL and the “Ave IL-Ib 2/28 Rep 2” value [1] was 0.29 ng/mL. For the same compound, the “Ave IL-Ib 2/28 Rep 3” value [1] was 0.30 ng/mL, the “IL-1β Relative %” value [1] was 114.2% and the “Ave IL-Ib 1/10 Avg” value [2] was 0.19 ng/mL. For the same compound, the “Ave IL-Ib 1/10 Rep 1” value [2] was 0.21 ng/mL, the “Ave IL-Ib 1/10 Rep 2” value [2] was 0.17 ng/mL and the “Ave IL-Ib 2/28 Rep 1” value [2] was 0.30 ng/mL. The “Ave IL-Ib 2/28 Rep 2” value [2] was 0.26 ng/mL, the “Ave IL-Ib 2/28 Rep 3” value [2] was 0.28 ng/mL and the “IL-1β Relative %” value [2] was 105.2%. The “Ave IL-Ib 1/10 Avg” value [3] was 0.15 ng/mL, the “Ave IL-Ib 1/10 Rep 1” value [3] was 0.15 ng/mL and the “Ave IL-Ib 1/10 Rep 2” value [3] was 0.14 ng/mL. The “Ave IL-Ib 2/28 Rep 1” value [3] was 0.23 ng/mL, the “Ave IL-Ib 2/28 Rep 2” value [3] was 0.24 ng/mL and the “Ave IL-Ib 2/28 Rep 3” value [3] was 0.24 ng/mL. The “IL-1β Relative %” value [3] was 88.7%, the “Ave IL-Ib 1/10 Avg” value [4] was 0.08 ng/mL and the “Ave IL-Ib 1/10 Rep 1” value [4] was 0.09 ng/mL. The “Ave IL-Ib 1/10 Rep 2” value [4] was 0.06 ng/mL, the “Ave IL-Ib 2/28 Rep 1” value [4] was 0.13 ng/mL and the “Ave IL-Ib 2/28 Rep 2” value [4] was 0.11 ng/mL. For the same compound, the “Ave IL-Ib 2/28 Rep 3” value [4] was 0.12 ng/mL, the “IL-1β Relative %” value [4] was 45.8% and the “Ave IL-Ib 1/10 Avg” value [5] was 0.04 ng/mL. The “Ave IL-Ib 1/10 Rep 1” value [5] was 0.05 ng/mL, the “Ave IL-Ib 1/10 Rep 2” value [5] was 0.03 ng/mL and the “Ave IL-Ib 2/28 Rep 1” value [5] was 0.04 ng/mL. For the same compound, the “Ave IL-Ib 2/28 Rep 2” value [5] was 0.03 ng/mL, the “Ave IL-Ib 2/28 Rep 3” value [5] was 0.04 ng/mL and the “IL-1β Relative %” value [5] was 13.7%. For the same compound, the “Ave IL-Ib 1/10 Avg” value [6] was 0.01 ng/mL, the “Ave IL-Ib 1/10 Rep 1” value [6] was 0.01 ng/mL and the “Ave IL-Ib 1/10 Rep 2” value [6] was 0.01 ng/mL. The “Ave IL-Ib 2/28 Rep 1” value [6] was 0.02 ng/mL, the “Ave IL-Ib 2/28 Rep 2” value [6] was 0.01 ng/mL and the “Ave IL-Ib 2/28 Rep 3” value [6] was 0.02 ng/mL. The “IL-1β Relative %” value [6] was 6.1%, the “Ave IL-Ib 1/10 Avg” value [7] was 0.01 ng/mL and the “Ave IL-Ib 1/10 Rep 1” value [7] was 0.01 ng/mL. The “Ave IL-Ib 1/10 Rep 2” value [7] was 0.01 ng/mL, the “Ave IL-Ib 2/28 Rep 1” value [7] was 0.03 ng/mL and the “Ave IL-Ib 2/28 Rep 2” value [7] was 0.01 ng/mL. For the same compound, the “Ave IL-Ib 2/28 Rep 3” value [7] was 0.02 ng/mL, the “IL-1β Relative %” value [7] was 8.2% and the “Ave IL-Ib 1/10 Avg” value [8] was 0.01 ng/mL. The “Ave IL-Ib 1/10 Rep 1” value [8] was 0.01 ng/mL, the “Ave IL-Ib 1/10 Rep 2” value [8] was 0.01 ng/mL and the “Ave IL-Ib 2/28 Rep 1” value [8] was 0.02 ng/mL. For the same compound, the “Ave IL-Ib 2/28 Rep 2” value [8] was 0.02 ng/mL, the “Ave IL-Ib 2/28 Rep 3” value [8] was 0.02 ng/mL and the “IL-1β Relative %” value [8] was 6.8%. For the same compound, the “ability of IFN-γ to stimulate the production of IL-1β” value (FIG. 1, clinically obtainable levels of CPDS) was “markedly reduce”, the “levels of IL-1β” value (FIG. 2, in the presence of LPS) was “substantially reduce” and the “secretion of IL-1β blocked” value (concentration as low as 50 uM CPDS) was 94%. The “neutralization of IL-1β” value (concentrations of 12.5 to 200 μM) was “complete neutralization”, the “reduction of measured IL-1β levels” value (concentrations of 12.5 to 200 μM, both tests) was 92-99% and the “neutralization of production of IL-1β in human cells” value (concentrations ranging from 50-200 μM) was “completely neutralize”.
